# According to US20210116454A1, “METHODS FOR TREATING A HEMATOLOGICAL CANCER AND THE USE OF COMPANION BIOMARKERS FOR 2-(2,6-DIOXOPIPERIDIN-3-YL)-4-((2-FLUORO-4-((3-MORPHOLINOAZETIDIN-1-YL)METHYL)BENZYL)AMINO)ISOINDOLINE-1,3-DIONE” (CELGENE CORPORATION, priority 2019, published 2021):
# Where two headings read alike, the source gives them in different places.
# Assays:
# Assay type in all cases: cell-based
# [1] = target: Ikaros (Homo sapiens, UniProt Q13422+Q96SW2); test: Enzyme fragment complementation (EFC) degradation assay, DF15 cells expressing ePL-tagged substrate; design: expressed in transfected cells; host or cells: DF15 cells; details: for Emax: DF15, DF15 ePL-Ikaros, remaining substrate; for DC50: DF15 ePL-Ikaros, read-out: Ikaros degradation EC50
# [2] = tested on: OCI-LY-19; test: 5-day viable cell number and apoptosis (7-AAD exclusion/Annexin V flow cytometry)
# Summary of the method: (§1)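 DLBCL lines were exposed to increasing compound doses for five days. Viable cell number was then counted, and apoptosis was scored by flow cytometry using 7-AAD exclusion with Annexin V staining.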
# [3] = tested on: OCI-LY-3; test: as above
# Summary of the method: as §1
# [4] = tested on: SU-DHL-10; test: as above
# Summary of the method: as §1
# [5] = tested on: SU-DHL-6; test: as above; details: SU-DHL-6 cells, 5 days
# Summary of the method: as §1
# [6] = tested on: SU-DHL-4 M-Parental; test: Viable cells/apoptosis in doxorubicin-resistant and matching parental lines; details: for IC50: Homo sapiens
# Method: (§2) The activity of Compound 1 was also evaluated in cell lines with acquired resistance to doxorubicin (Table 4). Doxorubicin-resistant cell lines (DoxoR) were generated by culturing the parental cell lines in vitro with increasing concentrations of doxorubicin for a long period of time (˜9 to 18 months) until they were able to grow in the presence of a relatively high concentration of doxorubicin (1 μM). Matching parental (M-Parent) cells were generated by maintaining the parental cells in culture without treatment for the same amount of time (˜9 to 18 months). The growth-inhibitory effect of doxorubicin on parental cells and the corresponding resistant cells was evaluated by measuring the number of viable cells and extent of apoptosis by 7-AAD exclusion and Annexin V staining using flow cytometry.
# (§3) The effects of Compound 1 on the viability of doxorubicin-resistant versus parental cell lines was determined (FIG. 2; Table 5).
# [7] = tested on: WSU-DLCL2 M-Parental; test: as above; details: for IC50: Homo sapiens
# Method: as §2, §3
# [8] = tested on: U2932 DoxoR; test: as above; details: for IC50: Homo sapiens
# Method: as §2, §3
# [9] = tested on: Oci-Ly10 M-Parental; test: as above; details: for IC50: Homo sapiens
# Method: as §2, §3
# [10] = tested on: SU-DHL-4 DoxoR; test: as above; details: for IC50: Homo sapiens
# Method: as §2, §3
# [11] = tested on: U2932 M-Parental; test: as above; details: for IC50: Homo sapiens
# Method: as §2, §3
# [12] = tested on: WSU-DLCL2 DoxoR; test: as above; details: for IC50: Homo sapiens
# Method: as §2, §3
# [13] = tested on: Oci-Ly10 DoxoR; test: as above; details: for IC50: Homo sapiens
# Method: as §2, §3
# [14] = tested on: DLBCL cell lines; test: Panel of twenty three DLBCL cell lines, 5-day viable cells and apoptosis
# Method: Compound 1 activity was evaluated in a panel of twenty three DLBCL cell lines. The DLBCL panel includes seven cell lines classified as activated B-cell (ABC) subtype, thirteen cell lines classified as the germinal center B-cell (GCB) subtype, and three cell lines classified as primary mediastinal B-cell lymphoma (PMBL). […] Thus, eleven cell lines have a t(8;14)(q24;q32) and/or t(14;18)(q32;q21.3), corresponding to MYC and BCL2 gene rearrangements into an immunoglobulin (IG) heavy chain locus as well as additional rearrangements affecting BCL6 (Table 1). The translocation of MYC, BCL6, or BCL2 to an IG locus usually leads to high levels of mRNA and protein due to the active transcription driven by a constitutively active IG promoter. Therefore, the protein levels of these genes were monitored by Western blots, confirming the overexpression of BCL2, MYC, and/or BCL6 in all the cell lines evaluated (FIG. 1, panel A). Expressions of CRBN protein and known substrates, Ikaros, Aiolos, and ZFP91 were also evaluated (FIG. 1, panels B and C).
# The panel of cell lines were treated with increasing doses of compounds for five days, at which time the number of viable cells was measured and the amount of apoptosis was determined by 7-AAD exclusion and Annexin V staining using flow cytometry. […] Overall, the sensitivity to Compound 1 was independent of cell of origin (COO), since ABC, GCB, and PMBL subtypes were sensitive to Compound 1 (Table 2).
# [15] = Homo sapiens, OCI-LY19, 120 h, OCI-LY-19 cells, 5 days
# [16] = Homo sapiens, OCI-Ly3, 120 h, OCI-LY-3 cells, 5 days
# [17] = Homo sapiens, SU-DHL10, 120 h, SU-DHL-10 cells, 5 days
# [18] = Homo sapiens, SU-DHL10, SU-DHL-10 cells (Table 3), read-out: IC50
# [19] = WSUDLCL2, 120 h, 5 days, read-out: IC50
# [20] = WSUDLCL2, read-out: Doxorubicin IC50
# Chain of Ikaros (Q13422 whole entry, the tested form may be a part): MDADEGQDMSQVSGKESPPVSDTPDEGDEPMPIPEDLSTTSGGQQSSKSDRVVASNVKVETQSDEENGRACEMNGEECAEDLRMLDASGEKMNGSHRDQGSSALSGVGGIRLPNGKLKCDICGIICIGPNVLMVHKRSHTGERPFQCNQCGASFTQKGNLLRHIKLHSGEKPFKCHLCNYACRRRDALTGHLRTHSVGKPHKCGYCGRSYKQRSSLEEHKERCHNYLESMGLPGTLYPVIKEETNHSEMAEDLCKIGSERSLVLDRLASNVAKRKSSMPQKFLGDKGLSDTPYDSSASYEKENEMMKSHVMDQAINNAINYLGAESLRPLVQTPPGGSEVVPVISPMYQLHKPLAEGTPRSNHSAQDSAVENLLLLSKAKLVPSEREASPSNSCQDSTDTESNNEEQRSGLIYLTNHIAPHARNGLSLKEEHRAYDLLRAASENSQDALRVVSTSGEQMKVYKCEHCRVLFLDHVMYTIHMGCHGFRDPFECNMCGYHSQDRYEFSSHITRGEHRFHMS
# Chain of Ikaros (Q96SW2 whole entry, the tested form may be a part): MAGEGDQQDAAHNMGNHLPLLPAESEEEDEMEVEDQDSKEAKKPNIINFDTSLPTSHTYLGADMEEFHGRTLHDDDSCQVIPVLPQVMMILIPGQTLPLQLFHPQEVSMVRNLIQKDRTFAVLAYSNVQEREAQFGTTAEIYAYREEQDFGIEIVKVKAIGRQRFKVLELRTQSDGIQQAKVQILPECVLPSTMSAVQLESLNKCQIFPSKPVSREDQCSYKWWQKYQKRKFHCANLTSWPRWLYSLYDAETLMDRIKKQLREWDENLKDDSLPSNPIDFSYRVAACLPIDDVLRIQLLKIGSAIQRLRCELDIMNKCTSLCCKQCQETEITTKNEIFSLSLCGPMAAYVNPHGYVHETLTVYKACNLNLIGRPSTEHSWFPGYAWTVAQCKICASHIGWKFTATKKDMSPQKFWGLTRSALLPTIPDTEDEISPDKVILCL
# Chain of Ikaros (Q16531 whole entry partner, the tested form may be a part): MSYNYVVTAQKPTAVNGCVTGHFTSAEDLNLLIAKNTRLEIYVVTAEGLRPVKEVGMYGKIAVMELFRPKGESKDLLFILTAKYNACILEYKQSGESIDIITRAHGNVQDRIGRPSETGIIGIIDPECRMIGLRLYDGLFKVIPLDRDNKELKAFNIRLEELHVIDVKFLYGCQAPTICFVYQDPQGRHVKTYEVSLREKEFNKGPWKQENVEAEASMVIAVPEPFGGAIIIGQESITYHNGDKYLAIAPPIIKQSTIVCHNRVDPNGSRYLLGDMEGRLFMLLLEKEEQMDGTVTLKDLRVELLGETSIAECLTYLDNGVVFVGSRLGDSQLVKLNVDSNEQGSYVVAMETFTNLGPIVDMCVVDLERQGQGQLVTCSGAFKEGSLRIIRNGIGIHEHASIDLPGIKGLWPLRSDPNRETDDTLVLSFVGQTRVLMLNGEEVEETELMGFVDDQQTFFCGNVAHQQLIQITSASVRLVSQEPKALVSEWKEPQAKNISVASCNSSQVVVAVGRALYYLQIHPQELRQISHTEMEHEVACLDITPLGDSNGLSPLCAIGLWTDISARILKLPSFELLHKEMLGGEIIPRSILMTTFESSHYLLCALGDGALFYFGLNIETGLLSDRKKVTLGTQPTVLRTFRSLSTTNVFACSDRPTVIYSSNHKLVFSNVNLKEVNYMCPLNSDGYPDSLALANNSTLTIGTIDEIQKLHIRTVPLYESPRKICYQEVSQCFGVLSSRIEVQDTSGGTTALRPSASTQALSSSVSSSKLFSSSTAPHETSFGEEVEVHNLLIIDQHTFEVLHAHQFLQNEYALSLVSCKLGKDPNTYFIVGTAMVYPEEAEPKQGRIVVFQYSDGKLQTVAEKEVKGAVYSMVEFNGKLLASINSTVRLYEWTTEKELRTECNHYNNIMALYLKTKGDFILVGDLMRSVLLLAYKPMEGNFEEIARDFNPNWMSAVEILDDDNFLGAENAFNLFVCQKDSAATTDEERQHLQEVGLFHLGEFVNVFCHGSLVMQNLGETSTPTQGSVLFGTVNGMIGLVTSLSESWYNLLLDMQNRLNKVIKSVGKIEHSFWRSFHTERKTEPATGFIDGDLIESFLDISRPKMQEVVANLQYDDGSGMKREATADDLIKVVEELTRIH
smiles,measurement,setting,value
"O=C1CC[C@H](N2C(=O)c3cccc(NCc4ccc(CN5CC(N6CCOCC6)C5)cc4F)c3C2=O)C(=O)N1 [Compound 1, (S)-2-(2,6-dioxopiperidin-3-yl)-4-((2-fluoro-4-((3-morpholinoazetidin-1-yl)methyl)benzyl)amino)isoindoline-1,3-dione]",Emax,[1]; 1 hour,75.5%
same,Emax,[1]; 2 hours,33%
same,Emax,[1]; 6 hours,1.5%
same,Emax,[1]; 24 hours,0.03%
same,DC50,[1]; 1 hour,0.6 nM
same,DC50,[1]; 2 hours,0.8 nM
same,DC50,[1]; 6 hours,0.5 nM
same,DC50,[1]; 24 hours,0.4 nM
same,EC50,[2]; [15],80.9 nM
same,Emax,[2]; [15],30.6%
same,IC50,"[2]; Homo sapiens, OCI-LY19, 120 h, OCI-LY-19 cells, 5 days, read-out: % Viable Cells IC50",30 nM
same,% Viable Cells AUC,"[2]; OCI-LY-19 cells, 5 days",283.3
same,% Viable Cells Emax,"[2]; OCI-LY-19 cells, 5 days",28.11%
same,% Viable Cells Sensitivity,"[2]; OCI-LY-19 cells, 5 days",Intermediate (intermediate sensitivity with 15% to 55% cell viability)
same,Apoptosis AUC,"[2]; OCI-LY-19 cells, 5 days",293.5
same,Apoptosis Sensitivity,"[2]; OCI-LY-19 cells, 5 days",Intermediate
same,EC50,[3]; [16],0.46 nM
same,Emax,[3]; [16],0.753%
same,% Viable Cells AUC,"[3]; OCI-LY-3 cells, 5 days",986.1
same,% Viable Cells Emax,"[3]; OCI-LY-3 cells, 5 days",84.33%
same,% Viable Cells Sensitivity,"[3]; OCI-LY-3 cells, 5 days",Limited
same,Apoptosis AUC,"[3]; OCI-LY-3 cells, 5 days",7.009
same,Apoptosis Sensitivity,"[3]; OCI-LY-3 cells, 5 days",Limited
same,EC50,[4]; [17],16.3 nM
same,Emax,[4]; [17],81.9%
same,IC50,"[4]; Homo sapiens, SU-DHL10, 120 h, SU-DHL-10 cells, 5 days, read-out: % Viable Cells IC50",10 nM
same,IC50,[4]; [18],3400 nM
same,% Viable Cells AUC,"[4]; SU-DHL-10 cells, 5 days",3.371
same,% Viable Cells Emax,"[4]; SU-DHL-10 cells, 5 days",2.477%
same,% Viable Cells Sensitivity,"[4]; SU-DHL-10 cells, 5 days",High (highly sensitive to Compound 1 with less than 6% viable cells remaining (Emax) after treatment)
same,Apoptosis AUC,"[4]; SU-DHL-10 cells, 5 days",815.3
same,Apoptosis Sensitivity,"[4]; SU-DHL-10 cells, 5 days",High
same,EC50,"[5]; Homo sapiens, 120 h",452 nM
same,Emax,"[5]; Homo sapiens, 120 h",46.3%
same,IC50,"[5]; Homo sapiens, 120 h",260 nM
same,% Viable Cells AUC,[5],88.38
same,% Viable Cells Emax,[5],5.843%
same,% Viable Cells Sensitivity,[5],High (highly sensitive to Compound 1 with less than 6% viable cells remaining (Emax) after treatment)
same,Apoptosis AUC,[5],421.1
same,Apoptosis Sensitivity,[5],High
same,IC50,"[6]; 120 h, 5 days, read-out: IC50",> 10000 nM
same,Emax (% viable cells remaining),[6]; relative to DMSO,74%
same,IC50,[7]; [19],10 nM
same,Emax (% viable cells remaining),[7]; relative to DMSO,23%
same,IC50,"[8]; 120 h, U2932 DoxoR, 5 days, read-out: IC50",1500 nM
same,Emax (% viable cells remaining),"[8]; U2932 DoxoR, relative to DMSO",31%
same,lower sensitivity in doxorubicin-resistant cells,[8]; U2932 doxorubicin-resistant vs M-parental,20 fold
same,IC50,"[9]; OCI-Ly10, 120 h, Oci-Ly 10 M-Parental, 5 days, read-out: IC50",6000 nM
same,Emax (% viable cells remaining),"[9]; Oci-Ly 10 M-Parental, relative to DMSO",47%
same,IC50,"[10]; 120 h, SU-DHL-4 DoxoR, 5 days, read-out: IC50",100 nM
same,Emax (% viable cells remaining),"[10]; SU-DHL-4 DoxoR, relative to DMSO",8%
same,greater sensitivity in the doxorubicin-resistant cell line,[10]; SU-DHL-4 doxorubicin-resistant vs parental,> 100 fold
same,IC50,"[11]; 120 h, 5 days, read-out: IC50",60 nM
same,Emax (% viable cells remaining),[11]; relative to DMSO,19%
same,IC50,[12]; [19],100 nM
same,Emax (% viable cells remaining),[12]; relative to DMSO,9%
same,IC50,"[13]; OCI-Ly10, 120 h, Oci-Ly 10 DoxoR, 5 days, read-out: IC50",300 nM
same,greater sensitivity of resistant cells compared to parental cells,[13]; OCI-Ly10 doxorubicin-resistant vs parental,approximately 20 fold
same,Emax (% viable cells remaining),"[13]; Oci-Ly 10 DoxoR, relative to DMSO",22%
same,IC50,"[14]; 120 h, eighteen of the twenty three lines, five days of treatment",1 to 400 nM
same,viable cells remaining (Emax),[14]; ten highly sensitive cell lines,less than 6%
"COc1cccc2c1C(=O)c1c(O)c3c(c(O)c1C2=O)C[C@@](O)(C(=O)CO)C[C@@H]3O[C@H]1C[C@H](N)[C@H](O)[C@H](C)O1 [Doxorubicin, reference compound]",IC50,"[2]; Homo sapiens, OCI-LY19, OCI-LY-19 cells (Table 3), read-out: IC50",2000 nM
same,IC50,"[3]; Homo sapiens, OCI-Ly3, OCI-LY-3 cells (Table 3)",11600 nM
same,IC50,[4]; [18],600 nM
same,IC50,[6]; read-out: Doxorubicin IC50,10 nM
same,IC50,[7]; [20],10 nM
same,IC50,"[8]; U2932 DoxoR, read-out: Doxorubicin IC50",1080 nM
same,IC50,"[9]; Oci-Ly10 M-Parental, read-out: Doxorubicin IC50",20 nM
same,IC50,"[10]; SU-DHL-4 DoxoR, read-out: Doxorubicin IC50",1500 nM
same,IC50,[11]; read-out: Doxorubicin IC50,10 nM
same,IC50,[12]; [20],1600 nM
same,IC50,"[13]; Oci-Ly10 DoxoR, read-out: Doxorubicin IC50",1400 nM
same,sensitivity of all DLBCL cell lines,[14]; panel of twenty three cell lines,strongly sensitive
